Measured values published in patent US20230219963A1, “PYRROLO[2,3-D]PYRIMIDINE DERIVATIVES” (Pfizer Inc., priority 2020, published 2023).

Tests used:
Type in all cases: cell-based
EPO induced pSTAT5 = experiment: EPO-induced pSTAT5 in human whole blood (all events); conditions: JAK2/JAK2, read-out: EPO induced pSTAT5, cellular potency IC50
Protocol: (§1) Human whole blood was collected from healthy donors via vein puncture into Vacutainer collection tubes containing sodium heparin in accordance with Pfizer protocols (Protocol No. GOHW RDP-01) approved by the Shulman Institutional Review Board. Blood was warmed to 37° C. priorto use. Human whole blood was aliquoted (90 μL/well) in 96-well, deep-well, V-bottom plates and treated with compounds (5 μL/well) at different concentrations up to 60 μM (0.2% DMSO final) at 37° C. for 60 minutes. This was followed by a challenge with IFNα (5000 U/mL), IFNγ (100 ng/mL), IL-6 (50 ng/mL), IL-10 (30 ng/mL), IL-12 (30 ng/mL), IL-15 (30 ng/mL), IL-21 (50 ng/mL), IL-23 (25 ng/mL), IL-27 (1000 ng/mL), EPO (2 U/mL), TSLP (50 ng/mL) or PBS and incubated for 15 minutes. Anti-cell surface antibodies were added 15 minutes prior to cytokine stimulation; anti-CD3-BV421 (0.5 μL/well) to IL-6-treated and TSLP-treated samples and anti-CD14-BV421 (0.5 μL/well) to IFNγ-treated samples. Samples were treated with warm 1×Lyse/Fix buffer (700 μL/well) to terminate activation and further incubated at 37° C. for 20 minutes to lyse red blood cells. Plates were centrifuged at 300×g for 5 minutes, supernatant was aspirated, and cells were washed with 800 μL/well of staining buffer (D-PBS containing 0.1% FBS and 0.01% sodium azide). Washed cell pellets were resuspended in 350 μL/well of prechilled 90% methanol and incubated at 4° C. for 30 minutes. After the removal of 90% methanol, cells were washed once with staining buffer. All samples were finally suspended in 150 μL/well of the desired anti-phospho-STAT antibodies at 1:150 dilution in staining buffer; anti-pSTAT1-AF647 in IFNγ treated samples; anti-pSTAT1-AF488 and anti-pSTAT3-AF647 in IL-6-treated samples, anti-pSTAT3-AF647 in IFNα, IL-10, IL-21, IL-23 and IL-27 treated samples, anti-pSTAT4-AF647 in IL-12 treated samples, anti-pSTAT5-AF-647 in EPO, IL-15 and TSLP-treated samples. Human primary keratinocytes were cultured in DermaLife™ medium with supplement kit to expand cell population. Cell passages 2 to 5 were used in the assays. Cells were harvested at ˜80% confluence, suspended in warm DermaLife™ medium, aliquoted (90 μL/well) in 96-well, deep-well, V-bottom plates, and incubated at 37° C. for 30 minutes. Cells were then treated with compounds (0.0003 to 20 μM) for 60 minutes and followed by stimulation with IL-4 (2 ng/mL) or IL-13 (20 ng/mL) at 37° C. for 15 minutes. […]
(§2) After overnight incubation at 4° C., anti-pSTAT stained samples were transferred into 96-well polypropylene U-bottom plates and flow cytometric analysis was performed on a LSR Fortessa™ equipped with a HTS plate loader. […] Background fluorescence was defined using unstimulated cells and a gate was placed at the foot of the peak to include ˜0.5% gated population. […]

IL-27 induced pSTAT3 = experiment: IL-27-induced pSTAT3 in human whole blood (lymphocytes); conditions: Lymphocyte, JAK1/JAK2, read-out: IL-27 induced pSTAT3, cellular potency IC50
Protocol: as §1, §2

IL-31 induced pSTAT3 = experiment: IL-31-induced pSTAT3 in IFNγ-primed THP-1 cells; conditions: Homo sapiens, JAK1/JAK2, read-out: IL-31 induced pSTAT3, cellular potency IC50
Protocol: THP-1 cells were maintained in RPMI 1640 medium containing 10% FBS, 50 μM 2 mercaptoethanol, 50 U/mL penicillin, 50 µg/mL streptomycin and 2 mM L-glutamine. THP 1 cells were treated with IFNγ (20 ng/mL) for 18 hours. IFNγ primed THP-1 cells were resuspended in fresh RPMI 1640 medium, treated with compounds (0.0003 to 20 μM) for 60 minutes, followed by stimulation with IL-31 (1 μg/mL) for additional 10 minutes. Cells were then fixed by 2% paraformaldehyde and permeabilized by 90% methanol. Fixed and permeabilized cells were stained with AlexaFluor647™ labeled anti-pSTAT3 antibody (1 to 150 dilution).
After overnight incubation at 4° C., anti-pSTAT stained samples were transferred into 96-well polypropylene U-bottom plates and flow cytometric analysis was performed on a LSR Fortessa™ equipped with a HTS plate loader. For human whole blood samples, lymphocyte population was gated for pSTAT histogram analysis for IFNα, IL-10, IL-12, IL-15, IL-21, IL-23, and IL-27-treated samples; CD14^+ cells for IFNγ-treated samples; CD3^+ cells for IL-6 and TSLP-treated samples; all events (entire populations) for EPO-treated samples. Entire populations of keratinocytes and THP-1 cells were gated for the IL-4, IL-13, IL-22 and IL-31 assays. Background fluorescence was defined using unstimulated cells and a gate was placed at the foot of the peak to include ˜0.5% gated population. Histogram statistical analysis was performed using FACSDiva version 8.0. Relative fluorescence unit, which measures the level of pSTAT, was calculated by multiplying the percent positive population and its mean fluorescence. Inhibition curves and half maximal inhibitory concentration (IC50) values were determined using Prism™ software (Version 8) or the Activity Base data analysis software (ID Business Solutions).

IL-23 induced pSTAT3 = experiment: IL-23-induced pSTAT3 in human whole blood (lymphocytes); conditions: Lymphocyte, JAK2/TYK2, read-out: IL-23 induced pSTAT3, cellular potency IC50
Protocol: as §1, §2

IL-22 induced pSTAT3 = experiment: IL-22-induced pSTAT3 in human keratinocytes; conditions: Keratinocyte, JAK1/TYK2, read-out: IL-22 induced pSTAT3, cellular potency IC50

SMILES | IC50 (EPO induced pSTAT5) [nM] | IC50 (IL-27 induced pSTAT3) [nM] | IC50 (IL-31 induced pSTAT3) [nM] | IC50 (IL-23 induced pSTAT3) [nM] | IC50 (IL-22 induced pSTAT3) [nM]
C[C@H](O)CS(=O)(=O)N[C@H]1C[C@@H](N(C)c2ncnc3[nH]ccc23)C1 (single isomer, unassigned) [IA (M2)] | 9470 | 234 | 56 | 6210 | 198
C[C@@H](O)CS(=O)(=O)N[C@H]1C[C@@H](N(C)c2ncnc3[nH]ccc23)C1 (single isomer, unassigned) [IC (M3)] | 18100 | 572 | – | 13800 | –
CN(c1ncnc2[nH]ccc12)[C@H]1C[C@@H](NS(=O)(=O)CCCO)C1 [IB (M1), 3-Hydroxy-N-(cis-3-(methyl(7H-pyrrolo[2,3-d]pyrimidin-4-yl)amino)cyclobutyl)propane-1-sulfonamide] | 9750 | 382 | 79.6 | 26200 | 703
